# Measured values published in US7645802B2 (Biovail Laboratories International SRL., priority 2005, dated 2010).
# Where a name gives a salt, the structure may show the parent alone.
# Tests used:
# Type in all cases: physicochemical
# TGA of bupropion salts = details: at 400° C.
# Method: 2-5 mg of each salt was placed in an aluminium pan and covered with its lid. DSC was run for each sample at the rate of 10 degrees C./min (for HBr salt, different rates were used to investigate for polymorphs) from 30 degrees C. to 400 degrees C. TGA was also used for each of the HBr, HCl, maleate and tosylate salts.
# (§1) The salts were analyzed by DSC (at 10° C./min from 30° C. up to 400° C.) and the pH (aq. 0.5%), and the moisture content by KF were also measured. The TGA was performed on the HCl, maleate, tosylate and HBr salts.
# [1] = Closed vial / closed glass bottle stability (40° C./75% RH) of bupropion salt APIs
# [2] = moisture content by KF and pH (aq. 0.5%) of bupropion salts; details: salt as received
# Method: The eight salts were first evaluated by HPLC, KF, pH and DSC for purity, water content, aqueous pH and possible polymorphs.
# as §1
# [3] = 10-Days, closed glass bottle 40 C./75% RH, HBr Lot# STN07491, HCl Lot# STN06973
# [4] = 10 Days, closed glass bottle 40 C./75% RH, HBr Lot# STN07492, HCl Lot# STN06978
# [5] = 14-Days, closed glass bottle 40° C./75% RH, HBr Lot# STN07492, HCl L# STN06973
# [6] = 24 Days, closed glass bottle 40° C./75% RH, HBr Lot# STN07492, HCl L# STN06973
# [7] = 24 Days, closed glass bottle 40° C./75% RH, HBr Lot# STN07492, HCl L# STN06973, hydrochloride
# [8] = Initial, closed glass bottle 40 C./75% RH, HBr Lot# STN07491, HCl Lot# STN06973
# [9] = Initial, closed glass bottle 40 C./75% RH, HBr Lot# STN07492, HCl Lot# STN06978
# [10] = Initial, closed glass bottle 40° C./75% RH, HBr Lot# STN07492, HCl L# STN06973
compound,measurement,setting,value
"CC(NC(C)(C)C)C(=O)c1cccc(Cl)c1 (stereo not shown) [Bupropion HCl, bupropion hydrochloride]",residue (TGA),TGA of bupropion salts,minimal residues
same,% Assay,[1]; [3],96.3%
same,% Impurities 3-CBZ,[1]; [3],0.110%
same,% Impurities 20U78/dilu,[1]; [3],0.047%
same,% Impurities 827U76,[1]; [3],0.045%
same,% Impurities 852U77,[1]; [3],0.047%
same,% Impurities Total unknown,[1]; [3],0.187%
same,% Impurities Total (%),"[1]; 10-Days, closed glass bottle 40 C./75% RH, HBr Lot# STN07491, HCl Lot# STN06973, hydrochloride",0.44%
same,% Assay,[1]; [4],96.5%
same,% Impurities 3-CBZ,[1]; [4],0.278%
same,% Impurities 20U78/dilu,[1]; [4],0.057%
same,% Impurities 827U76,[1]; [4],0.141%
same,% Impurities 852U77,[1]; [4],0.124%
same,% Impurities Total unknown,[1]; [4],0.137%
same,% Impurities Total (%),"[1]; 10 Days, closed glass bottle 40 C./75% RH, HBr Lot# STN07492, HCl Lot# STN06978, hydrochloride",0.74%
same,% Assay,[1]; [5],98.5%
same,% Impurities 3-CBZ,[1]; [5],0.019%
same,% Impurities 20U78/dilu,[1]; [5],0.038%
same,% Impurities 852U77,[1]; [5],0.010%
same,% Impurities Total unknown,[1]; [5],0.038%
same,% Impurities Total (%),"[1]; 14-Days, closed glass bottle 40° C./75% RH, HBr Lot# STN07492, HCl L# STN06973, hydrochloride",0.11%
same,% Assay,[1]; [6],98.5%
same,% Impurities 3-CBZ,[1]; [6],0.082%
same,% Impurities 827U76,[1]; [6],0.102%
same,% Impurities 852U77,[1]; [6],0.023%
same,% Impurities Total unknown,[1]; [6],0.049%
same,% Impurities 20U78/dilu,[1]; [7],0.040%
same,% Impurities Total (%),[1]; [7],0.30%
same,% Assay,[1]; [8],99.4%
same,% Impurities 3-CBZ,[1]; [8],0.003%
same,% Impurities 20U78/dilu,[1]; [8],0.040%
same,% Impurities Total unknown,[1]; [8],0.053%
same,% Impurities Total (%),"[1]; Initial, closed glass bottle 40 C./75% RH, HBr Lot# STN07491, HCl Lot# STN06973, hydrochloride",0.10%
same,% Assay,[1]; [9],99.1%
same,% Impurities 3-CBZ,[1]; [9],0.002%
same,% Impurities 20U78/dilu,[1]; [9],0.04%
same,% Impurities Total unknown,[1]; [9],0.165%
same,% Impurities Total (%),"[1]; Initial, closed glass bottle 40 C./75% RH, HBr Lot# STN07492, HCl Lot# STN06978, hydrochloride",0.21%
same,% Assay,[1]; [10],100.4%
same,% Impurities 3-CBZ,[1]; [10],0.002%
same,% Impurities 20U78/dilu,[1]; [10],0.043%
same,% Impurities 852U77,[1]; [10],0.003%
same,% Impurities Total unknown,[1]; [10],0.044%
same,% Impurities Total (%),"[1]; Initial, closed glass bottle 40° C./75% RH, HBr Lot# STN07492, HCl L# STN06973, hydrochloride",0.09%
Br.CC(NC(C)(C)C)C(=O)c1cccc(Cl)c1 (stereo not shown) [bupropion hydrobromide],moisture content KF,[2],0.00%
same,pH of the aqueous solution of 0.5%,[2],5.92
